One experiment has as its target TnmS1 (Streptomyces sp. CB03234, UniProt A0A125SA24). Briefly: fluorescence quenching. The format is binding.
In another experiment the target is (UniProt S2XVS8). Briefly: fluorescence quenching. It is filed as binding, Streptomyces sp. HGB0020.
The target in a further experiment is TnmS3 (Streptomyces sp. CB03234, UniProt A0A125SA29). Put plainly: fluorescence quenching. The format is binding.
The next experiment deals with CBFG_04671 (Clostridium pacaense, UniProt A0ABV1D2N3). Put plainly: fluorescence quenching. It is filed as binding.
A further experiment addresses TnmS2 (Streptomyces sp. CB03234, UniProt A0A125SA26). Put plainly: fluorescence quenching. It is filed as binding.
The target in experiment [1] is TnmS1 (Streptomyces sp. CB03234). Briefly: SEC.
Experiment [2] concerns the target TnmS2 (Streptomyces sp. CB03234). Put plainly: SEC.
Experiment [3] concerns the target TnmS3 (Streptomyces sp. CB03234). Briefly: SEC.
The mark [4] stands for this setting: 20 mM MOPS pH 7.0, 28 °C, 2 μM protein, ligand in DMSO.

Read-outs that look alike come from different tables or passages of the source.

Sequence of (UniProt S2XVS8) (S2XVS8 1-128): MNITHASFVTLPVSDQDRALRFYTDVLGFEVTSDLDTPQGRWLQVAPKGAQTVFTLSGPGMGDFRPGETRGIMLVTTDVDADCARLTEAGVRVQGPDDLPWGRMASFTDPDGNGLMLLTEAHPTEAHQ

In the case of `COc1ccc2c(c1O)C(=O)c1c3c(cc(O)c1C2=O)[C@@]12O[C@@]1([C@@H](C)O)[C@H](C#C/C=C\C#C[C@H]2O)N3` [TNM A], the Kd at TnmS1 amounted to 163 ± 17 nM; at (UniProt S2XVS8), 164 ± 23 nM; on TnmS3, 108 ± 13 nM; on CBFG_04671 it was 855 ± 66 nM; at TnmS2 it was 246 ± 36 nM.

In the case of `Cc1cc2nc3c(=O)[nH]c(=O)nc-3n(C[C@H](O)[C@H](O)[C@H](O)CO)c2cc1C` [riboflavin], the equilibrium dissociation constant (Kd) on TnmS1 was found to be 84100 nM; on TnmS3 it was 1100 nM; on TnmS2 it was 59500 nM.

Take TNM C: the figures for the dissociation constant Kd at TnmS1 (setting [4]), on TnmS3 (setting [4]) and on TnmS2 (setting [4]) were 350 ± 41 nM, 215 ± 27 nM and 361 ± 65 nM, respectively.

Regarding TnmS1 (natural protein), the stoichiometry N in experiment [1] turned out to be 2.

For TnmS2 (natural protein), the stoichiometry N in experiment [2] was 2.

As for TnmS3 (natural protein), the stoichiometry N in experiment [3] came to 2.

These data come from article PMC6208323 (Cell chemical biology, 2018).
